Reference: patent US5968912A, “Methods for immunosuppressing” (Immune Modulation, Inc., priority 1997, dated 1999)
Several values for one entry are separate records, joined by “and”; a condition that tells them apart may be missing. Equal values may be shown once.

What was measured:
IL-2 = IL-2 production in PHA-stimulated PBMC cultures; assay type: cell-based, human; parameters: % Inhibition of IL-2 production: concentration or dose not given beside the values
Protocol: (§1) Production of autocrine growth factors (IL-2, IL-4, IL-10 and Interferon-gamma) in PHA-stimulated human PBMC cultures
(§2) Culture supernatants were collected at the times indicated and frozen at -20° C. At the end of 96 hr., all supernatants were assayed by enzyme immunoassay for the presence of the cytokines: interleukin-2, -4, -10 and interferon (IFN)-gamma. Results were expressed in pg/mL concentration of cytokine and % inhibition of cytokine production.

[1] = system: NK cell activity (YAC-I cells as target); experiment: NK cell cytotoxicity assay, cells of pretreated donor mice; assay type: in vivo, mouse (C57BL/6); settings: spleen, effector/target 100:1
Protocol: Elimination of endogenous and inducible NK cell activity from the cell donor mice (C57BL/6)
Six- to ten-week old C57BL/6 mice were treated for 24 hours orally or intravenously with HE-33. Orally-treated mice received 400 mg/kg twice a day (Bid), and intravenously treated mice received a single 100 mg/kg i.v.
NK Cell cytotoxicity assay: At the end of the 24 hour pre-treatment with HE-33, all treated mice and control, non-treated mice (i.e., mice treated with vehicle, PBS) were sacrificed by cervical dislocation. Spleens and lymph nodes were removed and single-cell suspension of pooled spleen and lymph nodes from mice in each group of donor were prepared in RPMI-1640 supplemented with 10% fetal bovine serum (FBS) and 1% penicillin/streptomycin. Target cells were ^51 Cr-labeled Moloney leukemia virus-induced lymphoma (YAC) tumor cells. Different effector:target cell ratios were cultured in triplicate samples in U-bottomed microtiter plates for 4 hours at 37° C. in a humidified atmosphere containing 5% CO2. The microtiter plates were then centrifuged, and 100-μL aliquots of supernatants were assayed for ^51 Cr release. Results were expressed as percent lysis and percent suppression of lysis. The method of Ojo-Amaize, E. et. al., Scand. Journal of Immunology, 1978, 7: 297-306, was used for the NK assays.

[2] = system: anti-CD3-induced T-cell proliferation (PBMC); experiment: Anti-CD3-induced T-cell proliferation; assay type: cell-based, human; settings: anti-CD3 1 ng/mL
Protocol: Anti-T cell receptor (TCR)/CD3 induced T cell proliferation
PBMC of a healthy volunteer were cultured in 96-well microtiter plates at 2×10^5 cells/well. […] Cultures were incubated for 3 days at 37° C. in a 5% CO2 incubator. Proliferative response was determined by incorporation of ^3 H-thymidine.
Anti-CD3 mAb was used at 1 ng/mL concentration.

[3] = system: Protein Kinase-C-Mediated T-cell Proliferation (PBMC); experiment: PK-C-mediated T-cell proliferation (PMA + A23187); assay type: cell-based, human; settings: PMA 1.25 ng/mL + A23187 0.25 μM
Protocol: Determination of the effect of HE-33 on PK-C-mediated signaling pathway
PBMC of a healthy volunteer were cultured in 96-well microtiter plates at 2×10^5 cells/well. […] Forskolin is an agent well known to increase intacellular cAMP levels by activating adenylate cyclase. Cultures were incubated for 3 days at 37° C. in a 5% CO2 incubator. Proliferative response was determined by incorporation of ^3 H-thymidine.. The results were expressed in CPM and % inhibition of proliferation (Table 7).

IL-10 = IL-10 production in PHA-stimulated PBMC cultures; assay type: cell-based, human; parameters: % Inhibition of IL-10 production: concentration or dose not given beside the values
Protocol: as §1, §2

[4] = system: tetanus toxoid-specific T-cell proliferation (PBMC); experiment: cells; assay type: cell-based, human
IL-4 = IL-4 production in PHA-stimulated PBMC cultures; assay type: cell-based, human; parameters: % Inhibition of IL-4 production: concentration or dose not given beside the values
Protocol: as §1, §2

Interferon-gamma = Interferon-gamma production in PHA-stimulated PBMC cultures; assay type: cell-based, human; parameters: % Inhibition of IFN-γ production: concentration or dose not given beside the values
Protocol: as §1, §2

For `CCCN(CCC)c1ncnc2c1ncn2[C@@H]1O[C@@H]2COP(=O)(O)O[C@H]2[C@H]1O` [HE-33, N^6,N^6 -di-n-Propyl-c-AMP], the “% Inhibition of IL-2 production” value (IL-2; 24 hours) was 0%, the IL-2 production (IL-2; 24 hours) was 418 pg/mL and the “% Inhibition of IL-2 production” value (IL-2; 48 hours) was 76%. The IL-2 production (IL-2; 48 hours) was 148 pg/mL, the “% Inhibition of IL-2 production” value (IL-2; 72 hours) was 70% and the IL-2 production (IL-2; 72 hours) was 51 pg/mL. For the same molecule, the “% Inhibition of IL-2 production” value (IL-2; 96 hours) was 0%, the IL-2 production (IL-2; 96 hours) was 48 pg/mL and the “Percent Lysis (NK cell activity)” value ([1]; 100 mg/kg IV) was 14%. For the same molecule, the “Percent Lysis (NK cell activity)” value ([1]; 400 mg/kg (Bid) oral) was 5%, the “Percent Suppression of NK cell activity” value ([1]; 400 mg/kg (Bid) oral) was ~80% and 76% and the Proliferation ([2]; 10 μM) was 289 CPM. For the same molecule, the Proliferation ([2]; 100 μM) was 43 CPM, the inhibition at 10 µM ([2]; Homo sapiens, T-cell, 10 μM) was 77% and the inhibition at 100 µM ([2]; Homo sapiens, T-cell, 100 μM) was 97%. The Proliferation ([3]; 100 μM) was 31 CPM, the inhibition at 100 µM ([3]; Homo sapiens, T-cell) was 97% and the “% Inhibition of IL-10 production” value (IL-10; 24 hours) was 21%. For the same molecule, the IL-10 production (IL-10; 24 hours) was 441 pg/mL, the “% Inhibition of IL-10 production” value (IL-10; 48 hours) was 0% and the IL-10 production (IL-10; 48 hours) was 1304 pg/mL. For the same molecule, the “% Inhibition of IL-10 production” value (IL-10; 72 hours) was 0%, the IL-10 production (IL-10; 72 hours) was 790 pg/mL and the “% Inhibition of IL-10 production” value (IL-10; 96 hours) was 0%. For the same molecule, the IL-10 production (IL-10; 96 hours) was 991 pg/mL, the Proliferation ([4]; 1 μg/mL) was 358 CPM and the Proliferation ([4]; 10 μg/mL) was 94 CPM. The inhibition at 1 µg/mL ([4]; Homo sapiens, T-cell, 1 μg/mL) was 65%, the “% Inhibition of IL-4 production” value (IL-4; 24 hours) was 0% and the IL-4 production (IL-4; 24 hours) was 1041 pg/mL. For the same molecule, the “% Inhibition of IL-4 production” value (IL-4; 48 hours) was 87%, the IL-4 production (IL-4; 48 hours) was 193 pg/mL and the “% Inhibition of IL-4 production” value (IL-4; 72 hours) was 26%. The IL-4 production (IL-4; 72 hours) was 860 pg/mL, the “% Inhibition of IL-4 production” value (IL-4; 96 hours) was 25% and the IL-4 production (IL-4; 96 hours) was 101 pg/mL. The “% Inhibition of IFN-γ production” value (Interferon-gamma; 24 hours) was 0%, the IFN-γ production (Interferon-gamma; 24 hours) was 980 pg/mL and the “% Inhibition of IFN-γ production” value (Interferon-gamma; 48 hours) was 9%. The IFN-γ production (Interferon-gamma; 48 hours) was 6146 pg/mL, the “% Inhibition of IFN-γ production” value (Interferon-gamma; 72 hours) was 0% and the IFN-γ production (Interferon-gamma; 72 hours) was 5390 pg/mL. The “% Inhibition of IFN-γ production” value (Interferon-gamma; 96 hours) was 0% and the IFN-γ production (Interferon-gamma; 96 hours) was 6105 pg/mL.
